Test results as given in patent EP3046573B1, “AMYLIN ANALOGUES” (Zealand Pharma A/S, priority 2013, dated 2015).
Where two headings read alike, the source gives them in different places. Numbered stars: 1 amine (or outer) side, 2 acyl side, 3 side chain; on linkers, the order of the positions; unused ones are H or OH. Bridge positions count the residues as written; N and C are the ends. Square brackets hold non-standard residues; d marks the D form. Peptide text beside a SMILES is read from it. * marks the point of attachment. C20 diacid = O=C(O)CCCCCCCCCCCCCCCCCCC(=O)*; γGlu = O=C(O)[C@H](CCC(=O)[*:2])N[*:1]; NMeI = CC[C@H](C)[C@H](NC)C(=O)O; Dab = NCC[C@H](N)C(=O)O; Sar = CNCC(=O)O

Legend:
[1] = target: T1, human calcitonin receptor (hCTR2) (Homo sapiens, UniProt P30988); assay: hCTR2 assay: induction of cAMP (AlphaScreen cAMP Assay kit) in COS7 cells expressing hCTR2; assay type: cell-based
T1 construct: expressed in transfected cells
T1 sequence (P30988 25-474): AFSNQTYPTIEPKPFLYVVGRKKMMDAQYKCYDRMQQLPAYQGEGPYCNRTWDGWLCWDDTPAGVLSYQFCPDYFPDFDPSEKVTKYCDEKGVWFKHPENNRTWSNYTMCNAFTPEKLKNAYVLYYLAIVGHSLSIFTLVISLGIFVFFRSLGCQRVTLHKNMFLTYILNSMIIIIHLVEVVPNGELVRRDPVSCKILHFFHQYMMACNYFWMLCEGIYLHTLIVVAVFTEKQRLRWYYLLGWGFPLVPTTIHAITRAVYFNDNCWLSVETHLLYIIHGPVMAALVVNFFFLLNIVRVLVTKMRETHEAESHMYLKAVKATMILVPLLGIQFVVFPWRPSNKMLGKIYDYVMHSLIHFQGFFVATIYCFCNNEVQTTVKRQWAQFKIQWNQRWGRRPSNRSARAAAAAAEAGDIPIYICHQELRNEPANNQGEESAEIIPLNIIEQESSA
Summary of the method: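 Peptide-induced cAMP in hCTR2-expressing COS7 cells, 15 min at 37° C with phosphodiesterase inhibitor IBMX (100 µM), detected by AlphaScreen; potency from 4PL curves.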

[2] = Solubility assessment (turbidity absorbance at 325 nm); assay type: physicochemical; conditions: stock 2 mg/ml diluted 1:1, ambient temperature (typically 25°C), n=1; for Solubility, Acetate buffer pH 4: 100 mM acetate buffer pH 4.0; for Solubility, Acetate buffer pH 5: 100 mM acetate buffer pH 5.0; for Solubility, Histidine buffer pH 6: 100 mM histidine buffer pH 6.0; for Solubility, Histidine buffer pH 7: 100 mM histidine buffer pH 7.0; for Solubility, Phosphate buffer pH 6: 100 mM phosphate buffer pH 6.0; for Solubility, Phosphate buffer pH 7: 100 mM phosphate buffer pH 7.0; for Solubility, Phosphate buffer pH 7.5: 100 mM phosphate buffer pH7.5
Summary of the method: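 Turbidity read as absorbance at 325 nm (also 280 nm), single samples at ambient temperature (typically 25°C); ≤ 0.02 units counts as ≥ 1 mg/ml soluble. Samples made by 1:1 dilution of a 2 mg/ml acidic stock into 100 mM acetate, histidine or phosphate buffers, pH 4.0–7.5.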

SMILES: CC[C@H](C)[C@@H](C(=O)N[C@@H](CC(C)C)C(=O)N[C@@H](CO)C(=O)N[C@@H](CO)C(=O)N[C@H](C(=O)N[C@@H](CC(N)=O)C(=O)N[C@H](C(=O)NCC(=O)N[C@@H](CO)C(=O)N[C@@H](CC(N)=O)C(=O)N[C@H](C(=O)N1CCC[C@H]1C(N)=O)[C@@H](C)O)C(C)C)[C@@H](C)O)N(C)C(=O)[C@H](C)NC(=O)CN(C)C(=O)[C@H](Cc1ccccc1)NC(=O)[C@H](CC(N)=O)NC(=O)[C@H](CC(N)=O)NC(=O)[C@H](CO)NC(=O)[C@H](CO)NC(=O)[C@H](Cc1c[nH]cn1)NC(=O)[C@H](Cc1c[nH]cn1)NC(=O)[C@H](CC(C)C)NC(=O)[C@H](Cc1ccccc1)NC(=O)[C@H](CCC(=O)O)NC(=O)[C@H](C)NC(=O)[C@H](CC(C)C)NC(=O)[C@H](CCCNC(=N)N)NC(=O)[C@H](CCC(N)=O)NC(=O)[C@@H](NC(=O)[C@H](C)NC(=O)[C@@H]1CSSC[C@H](NC(=O)[C@H](CCN)NC(=O)CC[C@H](NC(=O)CCCCCCCCCCCCCCCCCCC(=O)O)C(=O)O)C(=O)N[C@@H](CC(N)=O)C(=O)N[C@@H]([C@@H](C)O)C(=O)N[C@@H](C)C(=O)N[C@@H]([C@@H](C)O)C(=O)N1)[C@@H](C)O [Compound 63, [19CD]-isoGlu-Dab-C()NTATC()ATQRLAEFLHHSSNNF-Gly(Me)-A-Ile(Me)-LSSTNVGSNTP-NH2] ({C20 diacid-γGlu}-[Dab]CNTATCATQRLAEFLHHSSNNF[Sar]A[NMeI]LSSTNVGSNTP-NH2; disulfide 2-7)
- EC50 [1]: 0.2 nM
- Solubility, Acetate buffer pH 4 [2]: SS (SS indicates solubility ≥ 1mg/ml)
- Solubility, Acetate buffer pH 5 [2]: II (II indicates solubility ≤ 1 mg/ml)
- Solubility, Histidine buffer pH 6 [2]: SS (SS indicates solubility ≥ 1mg/ml)
- Solubility, Histidine buffer pH 7 [2]: SS (SS indicates solubility ≥ 1mg/ml)
- Solubility, Phosphate buffer pH 6 [2]: SS (SS indicates solubility ≥ 1mg/ml)
- Solubility, Phosphate buffer pH 7 [2]: SS (SS indicates solubility ≥ 1mg/ml)
- Solubility, Phosphate buffer pH 7.5 [2]: SS (SS indicates solubility ≥ 1mg/ml)

SMILES: CC[C@H](C)[C@@H](C(=O)N[C@@H](CC(C)C)C(=O)N[C@@H](CO)C(=O)N[C@@H](CO)C(=O)N[C@H](C(=O)N[C@@H](CC(=O)O)C(=O)N[C@H](C(=O)NCC(=O)N[C@@H](CO)C(=O)N[C@@H](CCC(=O)O)C(=O)N[C@H](C(=O)N1CCC[C@H]1C(N)=O)[C@@H](C)O)C(C)C)[C@@H](C)O)N(C)C(=O)[C@H](C)NC(=O)CN(C)C(=O)[C@H](Cc1ccccc1)NC(=O)[C@H](CO)NC(=O)[C@H](CO)NC(=O)[C@H](CO)NC(=O)[C@H](CO)NC(=O)[C@H](CCCNC(=N)N)NC(=O)[C@H](Cc1c[nH]cn1)NC(=O)[C@H](CC(C)C)NC(=O)[C@H](Cc1ccccc1)NC(=O)[C@H](CCC(=O)O)NC(=O)[C@H](C)NC(=O)[C@H](CC(C)C)NC(=O)[C@H](CCCNC(=N)N)NC(=O)[C@H](CCC(N)=O)NC(=O)[C@@H](NC(=O)[C@H](C)NC(=O)[C@@H]1CSSC[C@H](NC(=O)[C@H](CCCNC(=N)N)NC(=O)CC[C@H](NC(=O)CCCCCCCCCCCCCCCCCCC(=O)O)C(=O)O)C(=O)N[C@@H](CC(N)=O)C(=O)N[C@@H]([C@@H](C)O)C(=O)N[C@@H](C)C(=O)N[C@@H]([C@@H](C)O)C(=O)N1)[C@@H](C)O [Compound 74, [19CD]-isoGlu-RC()NTATC()ATQRLAEFLHRSSSSF-Gly(Me)-A-Ile(Me)-LSSTDVGSETP-NH2] ({C20 diacid-γGlu}-RCNTATCATQRLAEFLHRSSSSF[Sar]A[NMeI]LSSTDVGSETP-NH2; disulfide 2-7)
- EC50 ([1]; cAMP induction in COS7 cells expressing hCTR2, average of a minimum of 3 determinations, read-out: hCTR2 EC50): 0.097 nM
- Solubility, Acetate buffer pH 4 [2]: SS (SS indicates solubility ≥ 1mg/ml)
- Solubility, Acetate buffer pH 5 [2]: SS (SS indicates solubility ≥ 1mg/ml)
- Solubility, Histidine buffer pH 6 [2]: SS (SS indicates solubility ≥ 1mg/ml)
- Solubility, Histidine buffer pH 7 [2]: SS (SS indicates solubility ≥ 1mg/ml)
- Solubility, Phosphate buffer pH 6 [2]: SS (SS indicates solubility ≥ 1mg/ml)
- Solubility, Phosphate buffer pH 7 [2]: SS (SS indicates solubility ≥ 1mg/ml)
- Solubility, Phosphate buffer pH 7.5 [2]: SS (SS indicates solubility ≥ 1mg/ml)

SMILES: CC[C@H](C)[C@@H](C(=O)N[C@@H](CC(C)C)C(=O)N[C@@H](CO)C(=O)N[C@@H](CO)C(=O)N[C@H](C(=O)N[C@@H](CC(N)=O)C(=O)N[C@H](C(=O)NCC(=O)N[C@@H](CO)C(=O)N[C@@H](CC(N)=O)C(=O)N[C@H](C(=O)N1CCC[C@H]1C(N)=O)[C@@H](C)O)C(C)C)[C@@H](C)O)N(C)C(=O)[C@H](C)NC(=O)CN(C)C(=O)[C@H](Cc1ccccc1)NC(=O)[C@H](CC(N)=O)NC(=O)[C@H](CC(N)=O)NC(=O)[C@H](CO)NC(=O)[C@H](CO)NC(=O)[C@H](Cc1c[nH]cn1)NC(=O)[C@H](CCCNC(=N)N)NC(=O)[C@H](CC(C)C)NC(=O)[C@H](Cc1ccccc1)NC(=O)[C@H](CCC(=O)O)NC(=O)[C@H](C)NC(=O)[C@H](CC(C)C)NC(=O)[C@H](CCCNC(=N)N)NC(=O)[C@H](CCC(N)=O)NC(=O)[C@@H](NC(=O)[C@H](C)NC(=O)[C@@H]1CSSC[C@H](NC(=O)[C@H](CCCNC(=N)N)NC(=O)CC[C@H](NC(=O)CCCCCCCCCCCCCCCCCCC(=O)O)C(=O)O)C(=O)N[C@@H](CC(N)=O)C(=O)N[C@@H]([C@@H](C)O)C(=O)N[C@@H](C)C(=O)N[C@@H]([C@@H](C)O)C(=O)N1)[C@@H](C)O [Compound 21, [19CD]-isoGlu-RC()NTATC()ATQRLAEFLRHSSNNF-Gly(Me)-A-Ile(Me)-LSSTNVGSNTP-NH2] ({C20 diacid-γGlu}-RCNTATCATQRLAEFLRHSSNNF[Sar]A[NMeI]LSSTNVGSNTP-NH2; disulfide 2-7)
- EC50 [1]: 0.38 nM
- Solubility, Acetate buffer pH 4 [2]: SS (SS indicates solubility ≥ 1mg/ml)
- Solubility, Acetate buffer pH 5 [2]: SS (SS indicates solubility ≥ 1mg/ml)
- Solubility, Histidine buffer pH 6 [2]: SS (SS indicates solubility ≥ 1mg/ml)
- Solubility, Histidine buffer pH 7 [2]: SS (SS indicates solubility ≥ 1mg/ml)
- Solubility, Phosphate buffer pH 6 [2]: SS (SS indicates solubility ≥ 1mg/ml)
- Solubility, Phosphate buffer pH 7 [2]: SS (SS indicates solubility ≥ 1mg/ml)
- Solubility, Phosphate buffer pH 7.5 [2]: SS (SS indicates solubility ≥ 1mg/ml)

SMILES: CC[C@H](C)[C@@H](C(=O)N[C@@H](CC(C)C)C(=O)N[C@@H](CO)C(=O)N[C@@H](CO)C(=O)N[C@H](C(=O)N[C@@H](CC(N)=O)C(=O)N[C@H](C(=O)NCC(=O)N[C@@H](CO)C(=O)N[C@@H](CC(N)=O)C(=O)N[C@H](C(=O)N1CCC[C@H]1C(N)=O)[C@@H](C)O)C(C)C)[C@@H](C)O)N(C)C(=O)[C@H](C)NC(=O)CN(C)C(=O)[C@H](Cc1ccccc1)NC(=O)[C@H](CC(N)=O)NC(=O)[C@H](CC(N)=O)NC(=O)[C@H](CO)NC(=O)[C@H](CO)NC(=O)[C@H](CCCNC(=N)N)NC(=O)[C@H](Cc1c[nH]cn1)NC(=O)[C@H](CC(C)C)NC(=O)[C@H](Cc1ccccc1)NC(=O)[C@H](CCC(=O)O)NC(=O)[C@H](C)NC(=O)[C@H](CC(C)C)NC(=O)[C@H](CCCNC(=N)N)NC(=O)[C@H](CCC(N)=O)NC(=O)[C@@H](NC(=O)[C@H](C)NC(=O)[C@@H]1CSSC[C@H](NC(=O)[C@H](CCCCN)NC(=O)[C@H](Cc2c[nH]cn2)NC(=O)CC[C@H](NC(=O)CCCCCCCCCCCCCCCCCCC(=O)O)C(=O)O)C(=O)N[C@@H](CC(N)=O)C(=O)N[C@@H]([C@@H](C)O)C(=O)N[C@@H](C)C(=O)N[C@@H]([C@@H](C)O)C(=O)N1)[C@@H](C)O [Compound 88, [19CD]-isoGlu-HKC()NTATC()ATQRLAEFLHRSSNNF-Gly(Me)-A-Ile(Me)-LSSTNVGSNTP-NH2] ({C20 diacid-γGlu}-HKCNTATCATQRLAEFLHRSSNNF[Sar]A[NMeI]LSSTNVGSNTP-NH2; disulfide 3-8)
- EC50 [1]: 0.069 nM
- Solubility, Acetate buffer pH 4 [2]: SS (SS indicates solubility ≥ 1mg/ml)
- Solubility, Acetate buffer pH 5 [2]: SS (SS indicates solubility ≥ 1mg/ml)
- Solubility, Histidine buffer pH 6 [2]: SS (SS indicates solubility ≥ 1mg/ml)
- Solubility, Histidine buffer pH 7 [2]: SS (SS indicates solubility ≥ 1mg/ml)
- Solubility, Phosphate buffer pH 6 [2]: SS (SS indicates solubility ≥ 1mg/ml)
- Solubility, Phosphate buffer pH 7 [2]: SS (SS indicates solubility ≥ 1mg/ml)
- Solubility, Phosphate buffer pH 7.5 [2]: SS (SS indicates solubility ≥ 1mg/ml)
